Assay results reported in patent US20220277805A1, “GENETIC MUTATIONAL ANALYSIS” (BioSkryb Genomics, Inc., priority 2019, published 2022).
Entries after “also recorded” stand apart in the source; their conditions may differ.

Tests used:
cord blood CD34+ cells = experiment: direct measurement of environmental mutagenicity (DMEM), single-cell PTA sequencing; type: cell-based, human; conditions: for enrichment of cytosine variants in DNase I hypersensitivity sites: compared to DH sites of CD34+ cells, Roadmap Epigenomics Project, FIG. 12D, 12E
Description: PTA was used to conduct a novel mutagenicity assay that provides a framework for performing high-resolution, genome wide human toxicogenomics studies. Previous studies such as the Ames test, relies on bacterial genetics to make measurements that are assumed to be representative of human cells while only providing limited information on the mutation number and patterns induced in each exposed cell. To overcome these limitations, a human mutagenesis system “direct measurement of environmental mutagenicity (DMEM)” was developed, wherein single human cells was exposed to an environmental compound, isolated as single cells, and subjected to single-cell sequencing to identify the new mutations induced in each cell.
Umbilical cord blood cells that express the stem/progenitor marker CD34 were exposed to increasing concentrations of the direct mutagen N-ethyl-N-nitrosourea (ENU).
ENU (CAS 759-73-9) and D-mannitol (CAS 69-65-8) were put into solution at their maximal solubility. Fresh anticoagulant-treated umbilical cord blood (CB) was obtained from St. Louis Cord Blood Bank. CB was diluted 1:2 with PBS and mononuclear cells (MNCs) were isolated by density gradient centrifugation on Ficoll-Paque Plus according to manufacturer's instructions. CB MNCs expressing CD34 were then immunomagnetically selected using the human CD34 microbead kit and magnetic cell sorting (MACS) system as per the manufacturer. Cell count and viability were assessed using the Luna FL cell counter. CB CD34+ cells were seeded at a density of 2.5×10^4 cells/mL in StemSpan SFEM supplemented with 1× CD34+ Expansion supplement, 100 units/mL of penicillin, and 100 ug/mL of streptomycin where they expanded for 96 hours before proceeding to mutagen exposure.
Expanded cord blood CD34+ cells were cultured in StemSpan SFEM supplemented with 1× CD34+ Expansion Supplement, 100 units/mL of penicillin, and 100 ug/mL of streptomycin. The cells were exposed to ENU at concentrations of 8.54, 85.4, and 854 uM, D-mannitol at 1152.8, and 11528 uM, or 0.9% sodium chloride (vehicle control) for 40 hours. Single-cell suspensions from drug-treated cells and vehicle control samples were harvested and stained for viability as described above. Single cell sorts were carried out as described above. PTA was performed and libraries were prepared using a simplified and improved protocol as per the general methods of the methods described herein, and Example 2.
Data acquired from cells in the DMEM experiments were trimmed using Trimmomatic, aligned to GRCh38 using BWA, and further processed using GATK 4.0.1 best practices without deviation from the recommended parameters. Genotyping was performed using HaplotypeCaller where joint genotypes were again filtered using standard parameters. […] The trinucleotide context of each SNV was determined by extracting the surrounding bases from the reference genome using bedtools. Mutation counts and context were visualized using ggplot2 and heatmap2 in R.
To determine whether mutations were enriched in DNase I hypersensitivity sites (DHS) in CD34+ cells, the proportion of SNVs in each sample that overlap with DHS sites from 10 CD34+ primary cell datasets produced by the Roadmap Epigenomics Project were calculated. DHS sites were extended by 2 nucleosomes, or 340 bases in either direction. Each DHS dataset was paired with a single cell sample where we determined the proportion of the human genome with at least 10× coverage in that cell which overlapped with a DHS, which was compared to the proportion of SNVs that were found within the covered DHS sites.

mice = conditions: limited sequencing of target genes; cited from earlier work
[1] = tested on: clone harboring an activating KRAS mutation; experiment: leukemia cells in culture exposed to standard ALL chemotherapy drugs, bulk sequencing of clones; type: cell-based; conditions: FIG. 7
Description: Given such a massive population genetic diversity, it has been hypothesized that there are clones that are more resistant to treatment within a given patient. To test that hypothesis, the sample is placed in culture and the leukemia cells are exposed to increasing concentrations of standard ALL chemotherapy drugs. […] This approach also employed bulk sequencing of the treated samples. The use of single-cell DNA sequencing in some instances allows a determination of the diversity and clonotypes of the expanding populations.

CCN(N=O)C(N)=O [ENU, N-ethyl-N-nitrosourea]
most common mutations (base changes) (cord blood CD34+ cells; FIG. 12B): T to A (A to T), T to C (A to G), and C to T (G to A)
enrichment in variant locations at DH sites (cord blood CD34+ cells; all ENU induced mutations, FIG. 12E): No significant enrichment in variant locations at DH sites
enrichment of cytosine variants in DNase I hypersensitivity sites (cord blood CD34+ cells): no enrichment of cytosine variants in DNase I hypersensitivity sites was observed; also recorded: no enrichment of variants restricted to cytosines was observed in DH sites
enrichment of cytosine variants in DNase I hypersensitivity sites (cord blood CD34+ cells; listed as N-ethyl-N-nitrosourea): No significant enrichment of cytosine variants was observed
mutation number of each cell (cord blood CD34+ cells; increasing ENU concentrations 8.54, 85.4, 854 uM, 40 hours, FIG. 12A): dose-dependent increase in mutation number of each cell
enrichment of variants in genomic locations with specific annotations (cord blood CD34+ cells; relative to proportion of the genome each annotation comprises, FIG. 12F): No specific enrichment
preferred base changes (mice): T to A (A to T), T to C (A to G), and C to T (G to A)

COc1cccc2c1C(=O)c1c(O)c3c(c(O)c1C2=O)C[C@@](O)(C(C)=O)C[C@@H]3O[C@H]1C[C@H](N)[C@H](O)[C@H](C)O1 [daunorubicin]
response of the clone harboring an activating KRAS mutation ([1]; in culture with drug): more sensitive; also recorded: killed

C[C@]12C=CC(=O)C=C1CC[C@@H]1[C@@H]2[C@@H](O)C[C@@]2(C)[C@H]1CC[C@]2(O)C(=O)CO [prednisolone]
response of the clone harboring an activating KRAS mutation ([1]; in culture with drug): more sensitive; also recorded: killed

asparaginase
response of the clone harboring an activating KRAS mutation ([1]; lowest dose): continued to expand
